Test results from PMC5421785, “Citrullination only infrequently impacts peptide binding to HLA class II MHC” (PLoS ONE, 2017).
Where two headings read alike, the source gives them in different places. Square brackets hold non-standard residues; d marks the D form. Ends that are not written are not given here. Peptide text beside a SMILES is read from it. Cit = NC(=O)NCCC[C@H](N)C(=O)O

How the values were obtained:
HLA-DRB1*04:01 = molecular target: T1, HLA-DRB1*04:01 (Homo sapiens, UniProt P01903+P01911, A100K/A169T/F76Y/I96L/K127E/L162R/M171V/N62H/P40V/Q125Y/R42H/S133A/S149N/S66Y/V115G/V209L/W38E); assay: HLA class II peptide binding, inhibition of radiolabeled peptide binding to purified MHC
T1 construct: EBV transformed homozygous cell lines were used as sources of MHC molecules; endogenous in cells; host or cells: EBV transformed homozygous cell lines

HLA-DRB1*01:01 = molecular target: T2, HLA-DRB1*01:01 (Homo sapiens, UniProt P01903+P01911, A100R/D57E/F55L/F60I/F76Y/I96L/L162R/M171V/P40L/Q125E/R42F/V115G/Y59C); assay: as above
T2 construct: EBV transformed homozygous cell lines were used as sources of MHC molecules; endogenous in cells; host or cells: EBV transformed homozygous cell lines

[1] = citrullinated 15-mer peptide (X = citrulline), purified HLA-DRB1*04:01, read-out: DRB1*04:01 binding capacity, Cit peptide (IC50 nM)
[2] = citrullinated 15-mer peptide (X = citrulline), purified HLA-DRB1*01:01, read-out: DRB1*01:01 binding capacity, Cit peptide (IC50 nM)
[3] = ratio of WT IC50 to Cit IC50, >1 = citrullination increases binding
[4] = citrullinated 15-mer (X), purified MHC, inhibition of radiolabeled peptide binding, dash = IC50 >40,000 nM, read-out: DRB1*04:01 binding capacity, Cit peptide (IC50 nM)
[5] = citrullinated 15-mer (X), purified MHC, inhibition of radiolabeled peptide binding, dash = IC50 >40,000 nM, read-out: DRB1*01:01 binding capacity, Cit peptide (IC50 nM)

| IC50 (HLA-DRB1*04:01; [1]) [nM] | IC50 (HLA-DRB1*01:01; [2]) [nM] | IC50 (HLA-DRB1*04:01; [4]) [nM] | IC50 (HLA-DRB1*01:01; [5]) [nM] | Molecule | further results |
| --- | --- | --- | --- | --- | --- |
| 16600 | > 40000 |  |  | CSCC[C@H](NC(=O)[C@H](CCC(N)=O)NC(=O)[C@H](CCCNC(N)=O)NC(=O)[C@H](CCC(=O)O)NC(=O)[C@H](CC(C)C)NC(=O)[C@H](CO)NC(=O)[C@H](CCC(=O)O)NC(=O)[C@H](CC(N)=O)NC(=O)[C@@H](NC(=O)CNC(=O)[C@H](CCCCN)NC(=O)[C@H](CC(C)C)NC(=O)[C@H](C)NC(=O)[C@@H](N)CC(=O)O)[C@@H](C)O)C(=O)N[C@@H](CCCNC(=N)N)C(=O)O [DALKGTNESLEXQMR] (H-DALKGTNESLE[Cit]QMR-OH) |  |
|  |  |  |  | CC[C@H](C)[C@H](NC(=O)[C@H](CCCNC(N)=O)NC(=O)[C@H](CS)NC(=O)[C@@H]1CCCN1)C(=O)N[C@@H](CS)C(=O)N[C@H](C(=O)N[C@@H](CS)C(=O)N[C@@H](CC(=O)O)C(=O)N[C@H](C(=O)NCC(=O)N[C@H](C(=O)N[C@H](C(=O)N[C@@H](CC(C)C)C(=O)N[C@@H](CS)C(=O)N[C@@H](CC(=O)O)C(=O)O)C(C)C)[C@@H](C)O)[C@@H](C)O)C(C)C [PCXICVCDTGTVLCD] (H-PC[Cit]ICVCDTGTVLCD-OH; N-terminus and C-terminus assumed) | DRB1*04:01 binding capacity, WT/cit ratio (HLA-DRB1*04:01; [3]): 1.2; DRB1*01:01 binding capacity, WT/cit ratio (HLA-DRB1*01:01; [3]): 0.463 |
| 2590 | 344 |  |  | CC[C@H](C)[C@H](NC(=O)[C@H](CC(C)C)NC(=O)[C@H](CC(C)C)NC(=O)[C@@H](NC(=O)[C@H](CCCNC(N)=O)NC(=O)[C@H](CCCCN)NC(=O)[C@H](CO)NC(=O)[C@H](Cc1c[nH]cn1)NC(=O)[C@@H](NC(=O)[C@H](CC(=O)O)NC(=O)[C@@H](NC(=O)[C@H](CC(C)C)NC(=O)[C@@H]1CCCN1C(=O)[C@@H](N)CC(C)C)C(C)C)[C@@H](C)O)[C@@H](C)O)C(=O)N[C@@H](CCCCN)C(=O)O [LPLVDTHSKXTLLIK] (H-LPLVDTHSK[Cit]TLLIK-OH) |  |
| 3810 | 360 |  |  | CC[C@H](C)[C@H](NC(=O)[C@@H](N)CCC(=O)O)C(=O)N[C@@H](C)C(=O)N[C@H](C(=O)N[C@@H](Cc1ccc(O)cc1)C(=O)N[C@@H](CCCNC(N)=O)C(=O)N[C@@H](CCCCN)C(=O)N[C@@H](CC(C)C)C(=O)N[C@@H](CC(C)C)C(=O)N[C@@H](CCC(=O)O)C(=O)NCC(=O)N[C@@H](CCC(=O)O)C(=O)N[C@@H](CCC(=O)O)C(=O)N[C@@H](CO)C(=O)N[C@@H](CCCNC(=N)N)C(=O)O)[C@@H](C)O [EIATYXKLLEGEESR] (H-EIATY[Cit]KLLEGEESR-OH) |  |
|  |  | 1630 | 12900 | CC(C)[C@H](NC(=O)[C@H](Cc1ccc(O)cc1)NC(=O)[C@H](CO)NC(=O)[C@H](CCCNC(N)=O)NC(=O)[C@H](CO)NC(=O)[C@H](CO)NC(=O)[C@H](CO)NC(=O)[C@@H]1CCCN1C(=O)[C@H](CCCNC(=N)N)NC(=O)[C@H](CO)NC(=O)[C@H](C)N)C(=O)N[C@H](C(=O)N[C@H](C(=O)N[C@@H](CO)C(=O)N[C@H](C(=O)O)[C@@H](C)O)[C@@H](C)O)[C@@H](C)O [ASRPSSSXSYVTTST] (H-ASRPSSS[Cit]SYVTTST-OH) |  |
|  |  |  |  | CC[C@H](C)[C@H](NC(=O)[C@H](CCC(=O)O)NC(=O)[C@@H](NC(=O)[C@H](CC(=O)O)NC(=O)[C@H](CC(N)=O)NC(=O)[C@@H](N)CO)C(C)C)C(=O)N[C@@H](CCCNC(=N)N)C(=O)N[C@@H](C)C(=O)N[C@@H](CCC(=O)O)C(=O)NCC(=O)N[C@@H](CC(N)=O)C(=O)N[C@@H](CO)C(=O)N[C@@H](CCCNC(N)=O)C(=O)N[C@@H](Cc1ccccc1)C(=O)N[C@H](C(=O)O)[C@@H](C)O [SNDVEIRAEGNSXFT] (H-SNDVEIRAEGNS[Cit]FT-OH) | IC50 (HLA-DRB1*04:01; citrullinated peptide as listed (X at Cit position), read-out: DRB1*04:01 binding capacity Cit peptide (IC50 nM)): 178 nM; IC50 (HLA-DRB1*01:01; citrullinated peptide as listed (X at Cit position), read-out: DRB1*01:01 binding capacity Cit peptide (IC50 nM)): 92 nM |
|  |  | 1280 | 686 | CSCC[C@H](NC(=O)[C@H](CCC(=O)O)NC(=O)[C@H](CCC(=O)O)NC(=O)[C@@H](N)CCC(=O)O)C(=O)N[C@@H](CCCNC(=N)N)C(=O)N[C@@H](CCC(=O)O)C(=O)N[C@@H](CC(C)C)C(=O)N[C@@H](CCCNC(=N)N)C(=O)N[C@@H](CCCNC(N)=O)C(=O)N[C@@H](CCC(N)=O)C(=O)N[C@H](C(=O)N[C@@H](CC(=O)O)C(=O)N[C@@H](CCC(N)=O)C(=O)N[C@@H](CC(C)C)C(=O)N[C@H](C(=O)O)[C@@H](C)O)C(C)C [EEEMRELRXQVDQLT] (H-EEEMRELR[Cit]QVDQLT-OH) |  |
|  |  | 1080 | 573 | CSCC[C@H](NC(=O)[C@H](CCCNC(=N)N)NC(=O)[C@H](CCCNC(=N)N)NC(=O)[C@H](Cc1ccc(O)cc1)NC(=O)[C@H](CO)NC(=O)[C@H](CO)NC(=O)[C@H](CO)NC(=O)[C@H](CO)NC(=O)[C@@H](NC(=O)[C@H](CO)NC(=O)[C@H](CCCNC(N)=O)NC(=O)[C@@H](NC(=O)[C@H](CO)NC(=O)[C@@H](N)CCSC)[C@@H](C)O)C(C)C)C(=O)N[C@@H](Cc1ccccc1)C(=O)O [MSTXSVSSSSYRRMF] (H-MST[Cit]SVSSSSYRRMF-OH) |  |
|  |  |  |  | DRGDVGEKGPEGAPG [Collagen 766 WT] | IC50 (HLA-DRB1*04:01; wild-type (unmodified Arg) 15-mer peptide, purified HLA-DRB1*04:01, read-out: DRB1*04:01 binding capacity, WT peptide (IC50 nM)): 21600 nM; IC50 (HLA-DRB1*01:01; wild-type (unmodified Arg) 15-mer peptide, purified HLA-DRB1*01:01, read-out: DRB1*01:01 binding capacity, WT peptide (IC50 nM)): 729 nM |
